Read-outs that look alike come from different tables or passages of the source.
Assays:
UOK257-FLCN^− cells [1] = experiment: SRB growth inhibition assay in UOK257-FLCN^− cells; assay type: cell-based, human; details: for GI50: Homo sapiens
Excerpt: (§1) Human renal carcinoma of BHD origin cells UOK-257 (UOK-FLCN^−) and FLCN transfected UOK-257 cells UOK-FLCN^+ (Yang et al Cancer Genet Cytogenet. 2008 Jan. 15; 180(2):100-9) were provided by Dr Marston Linehan and Dr. Laura S Schmidt (Urologic Oncology Branch, Centre for Cancer Research, National Cancer Institute, National Institutes of Health, Bethesda, Md. 20892, USA). UOK-257 is the only RCC cell line that has been derived from a patient with BHD and harbours a germline FLCN frameshift mutation (c.1285dupC) (predicted, in the absence of nonsense mediated mRNA decay, to lead to premature protein truncation (p.His429ProfsX27) (Yang et al., Cancer Genet Cytogenet, 2008 Jan. 15; 180(2):100-9). We are not aware of any sporadic RCC cell lines with homozygous FLCN inactivation. FTC-133 cells were purchased from ECACC (Salisbury, United Kingdom). These cells are a non-RCC cell line derived from human thyroid carcinoma. 786-0 cells were available from the author's lab (Clifford et al., Hum Mol Genet. 2001 May 1; 10(10):1029-38). 786-O is a kidney cancer cell line that harbours an inactivating VHL gene mutation (c.311delG p.G104fs*55). All cell lines were cultured in DMEM with supplement of 10% foetal bovine serum except for FTC-133 cells which were incubated in medium with DMEM and Hens (1:1).
(§2) The sensitivity of the cell lines to drug-induced cell growth inhibition was determined using the sulphorhodamine B assay (SRB) as described by Lu et al., Clin Cancer Res. 2001:7:2114-23. Briefly, adherent exponentially growing cells were seeded into 96-well plates at 3-5×10^3 cells/100 μl/well. […] The absorbance per well was measured at 570 nm on a Victor X3 Multilabel Plate Reader (PerkinElmor, Beaconsfield, United Kingdom).
GI50 values, defined as the concentration of compounds required to inhibit growth by 50%, were then calculated. The ratio of GI50 value from UOK257-FLCN^+ and UOK257-FLCN^− were calculated and used as an indicator for the sensitivity to FLCN mutant cells.

UOK-FLCN^+ cells = details: 4×GI50 mithramycin, no rapamycin
Protocol: At the end of the time course, media was carefully removed and cells were fixed in 85% ice-cold ethanol. After removal of ethanol, cells were incubated in the dark at 37° C. for 20 minutes in PBS buffers containing 0.1% Triton X-100, 100 mg/mL RNase A and 10 mg/mL Propidium iodide (PI). The 96-well plates were subsequently scanned using the Acumen eX3 cytometer (TTP LabTech).

UOK257-FLCN^− cells [2] = experiment: Clonogenic cell survival assay in UOK257-FLCN^− cells
Protocol: The final concentration of DMSO in the medium was 1%. Four dishes with two seeding densities for each drug concentration were used and at least three experiments were carried out under each set of conditions. […] The cells were incubated for an additional 10-16 days until visible colonies appeared, which were fixed with Carnoy's fixative (methanol:acetic acid 3:1, v:v), and visualized by staining cells in sulphorhodamine B (0.4%). Colonies with over 30 cells were counted. […] Cell survival following drug exposure was expressed as % control cloning efficiency or survival.

UOK257-FLCN^+ cells [3] = experiment: Clonogenic cell survival assay in UOK257-FLCN^+ cells; assay type: cell-based, human; details: 72 hrs exposure
Excerpt: Colonies with over 30 cells were counted.

UOK257-FLCN^+ cells [4] = experiment: SRB growth inhibition assay in UOK257-FLCN^+ cells; assay type: cell-based, human
Excerpt: as §1
as §2, with “μl/well. After 20-24 h at 37° C., drugs were added at the appropriate drug concentrations to the wells (final DMSO conc. 1%) as indicated in the Results section.” for “μl/well.”
UOK-257 is the only RCC cell line that has been derived from a patient with BHD and harbours a germline FLCN frameshift mutation (c.1285dupC) (predicted, in the absence of nonsense mediated mRNA decay, to lead to premature protein truncation (p.His429ProfsX27) (Yang et al Cancer Genet Cytogenet, 2008 Jan. 15; 180(2):100-9). Both UOK257-FLCN^− and UOK257-FLCN^+ cells were examined for their sensitivities to growth inhibition induced by 15 compounds selected from the COMPARE analysis. Various concentrations of compounds were introduced into the cells 24 hrs after seeding, incubation was continued for 72 hours and growth inhibition was assessed using the suiphorhodamine B (SRB) assay. GI50 values, defined as the concentration of compounds required to inhibit growth by 50%, were then calculated. The ratio of GI50 value from UOK257-FLCN^+ and UOK257-FLCN^− were calculated and used as an indicator for the sensitivity to FLCN mutant cells.

[5] = system: 786-O cells with mutant VHL; experiment: SRB growth inhibition in 786-O cells with mutant VHL; assay type: cell-based, human
Excerpt: as §1
as §2, with “μl/well. After 20-24 h at 37° C., drugs were added at the appropriate drug concentrations to the wells (final DMSO conc. 1%) as indicated in the Results section.” for “μl/well.”
Cells were exposed continuously to various concentrations of drugs for 72 hours. GI50 values were determined as the concentrations at 50% growth inhibition from at least three experiments.

CO[C@H](C(=O)[C@@H](O)[C@@H](C)O)C1Cc2cc3cc(OC4CC(OC5CC(O)C(O)C(C)O5)C(O)C(C)O4)c(C)c(O)c3c(O)c2C(=O)[C@H]1OC1CC(OC2CC(OC3CC(C)(O)C(O)C(C)O3)C(O)C(C)O2)C(O)C(C)O1 (stereo partly shown) [mithramycin, Mithramycin]
GI50 (UOK257-FLCN^− cells [1]; 72 h, read-out: GI50 nM in UOK-FLCN^−): 64.2 ± 7.9 nM | GI50 (UOK257-FLCN^− cells [1]; 72 h, read-out: GI50 in UOK257-FLCN^− cells, rapamycin combination experiment): 69 ± 10 nM | GI50 (UOK257-FLCN^− cells [1]; read-out: GI50 in FLCN-null UOK257 cells): 64.2 ± 7.9 nM | GI50 Ratio of UOK-FLCN^+/UOK-FLCN^− (UOK257-FLCN^− cells [1]; ratio>1 = more inhibitory to FLCN^− cells): 9.88 | increase in S and G2-M phases (UOK-FLCN^+ cells): 15% | fold more cytotoxic to FLCN-null than FLCN-wild type UOK257 cells (clonogenic survival) (UOK257-FLCN^− cells [2]; 200 nM where stated): ~10 fold | viable cells (clonogenic survival), UOK-257 cells without FLCN expression (UOK257-FLCN^− cells [2]; 200 nM, 72 hrs exposure): less than 8% | cells survived (clonogenic), UOK257-FLCN^− cells (UOK257-FLCN^− cells [2]; 500 nM, 72 hrs exposure): less than 0.1% | cell survival (clonogenic), UOK257-FLCN^+ cells (UOK257-FLCN^+ cells [3]; 200 nM): more than 85% | cells able to form colonies, UOK257-FLCN^+ cells (UOK257-FLCN^+ cells [3]; 500 nM): more than 60% | cells survived (clonogenic), UOK257-FLCN^+ cells (UOK257-FLCN^+ cells [3]; 5000 nM): more than 4% | GI50 (UOK257-FLCN^+ cells [4]; 72 hours continuous exposure, mean ± SE (n), read-out: GI50 nM in UOK-FLCN^+): 634 ± 148 nM | GI50 (UOK257-FLCN^+ cells [4]; Homo sapiens, 72 h, 72 hours continuous exposure, mean ± SE (n), read-out: GI50 nM in UOK-FLCN^+): 634 ± 148 nM | GI50 (UOK257-FLCN^+ cells [4]; Homo sapiens, read-out: GI50 in FLCN-wt UOK257 cells): 634 ± 148 nM | fold greater growth inhibitory sensitivity in 786-O mutant VHL versus wt VHL [5]: ~3 fold | GI50 ([5]; Homo sapiens, 786-0, 72 h, read-out: GI50 in 786-O cells with mutant VHL): 117 ± 37 nM
